Test results as given in patent publication US20090258098A1, “PENETRATING CARRIER, ANTIFUNGAL COMPOSITION USING THE SAME AND METHOD FOR TREATMENT OF DERMATOPHYTE INFECTIONS” (priority 2008, published 2009).

System: dermatophytic fungal strains
Assay: Disk assay of essential oil components
Type: cell-based
Settings: disk loaded with 500, 1000, 1500 or 3000 ppm
Description: Various embodiments of the penetrating carrier system of the present invention were tested for their antimicrobial/biostatic potential by a laboratory test method, which provides a qualitative and semi-qualitative procedure for the evaluation of antimicrobial activity by disk assay. All dermatophytic fungal strains (Table 1) were grown on modified Sabouraud agar (pH adjusted to 7). The cultures were grown for one week previous to the experiments at 30° C., while stock culture plates were maintained at 4° C. until needed. […] The sterile disk was then loaded with 500 ppm, 1000 ppm, 1500 ppm or 3000 ppm of the test compound. A control was provided by placing 2 ul of alcohol on plates that were inoculated for this purpose. The plates were incubated for seven (7) days at 30° C. The zone of inhibition was measured around each loaded disk in four directions. The average measurement was then determined and recorded in millimeters as the zone of inhibition.

Structure (SMILES)	Rank among essential oil components in the disk assay
Cc1ccc(C(C)C)cc1O [Carvacrol]	most inhibitory
O=CC=Cc1ccccc1 [Cinnamaldehyde]	most inhibitory
CC(C)=CCCC(C)=CC=O [Citral]	most inhibitory
C=CCc1ccc(O)c(OC)c1 [Eugenol]	most inhibitory
Cc1ccc(C(C)C)c(O)c1 [Thymol]	most inhibitory

System: Epidermophyton floccosum
Assay: Minimum inhibitory concentration, poison media procedure
Type: cell-based
Settings: 100 ppm (v/v) in modified Sabouraud agar; one week at 30° C.
Description: (§1) Each individual essential oil component was mixed with molten modified Sabouraud agar in 100 ppm, 500 ppm, or 1000 ppm (v/v). The poison media agar was then poured and allowed to cool for at least 48 hours. Separate cultures of four dermatophytes (i.e.: E. floccosum, M. gypseum, T. mentagrophytes, and T. rubrum) were grown on modified Sabouraud agar for four days until a confluent mat of mycelium developed. The four cultures were then cut into 8 mm plugs and placed upside down with the fungi culture on the surface of the poison media. This procedure was run in triplicate. In addition, several mixtures containing various combinations of the essential oil components were tested using the same procedure. The plates were incubated for one week at 30° C. Plates were then examined for growth. Plates with no visible growth after one week on the poison media were listed as fungistatic
(§2) Plugs showing no growth on the poison media were then transferred to modified SDA, allowed to incubate for an additional week at 30° C., and then reexamined for growth. All components were run in triplicate. Plates with no growth after the additional week were listed as fungicidal.

Structure (SMILES)	Growth on poison media (fungistatic / fungicidal / growth)
Cc1ccc(C(C)C)cc1O [Carvacrol]	[empty]
O=CC=Cc1ccccc1 [Cinnamaldehyde]	[empty]
CC(C)=CCCC(C)=CC=O [Citral]	[empty]
C=CCc1ccc(O)c(OC)c1 [Eugenol]	[empty]
Cc1ccc(C(C)C)c(O)c1 [Thymol]	fungistatic

Same assay, conditions: 500 ppm (v/v) in modified Sabouraud agar; one week at 30° C.

Structure (SMILES)	Growth on poison media (fungistatic / fungicidal / growth)
Cc1ccc(C(C)C)cc1O [Carvacrol]	fungicidal
O=CC=Cc1ccccc1 [Cinnamaldehyde]	fungicidal
CC(C)=CCCC(C)=CC=O [Citral]	[empty]
C=CCc1ccc(O)c(OC)c1 [Eugenol]	fungicidal
Cc1ccc(C(C)C)c(O)c1 [Thymol]	fungicidal

Same assay, conditions: 1000 ppm (v/v) in modified Sabouraud agar; one week at 30° C.

Structure (SMILES)	Growth on poison media (fungistatic / fungicidal / growth)
Cc1ccc(C(C)C)cc1O [Carvacrol]	fungicidal
O=CC=Cc1ccccc1 [Cinnamaldehyde]	fungicidal
CC(C)=CCCC(C)=CC=O [Citral]	[empty]
C=CCc1ccc(O)c(OC)c1 [Eugenol]	fungicidal
Cc1ccc(C(C)C)c(O)c1 [Thymol]	fungicidal

Same assay, conditions: 168 h, 100 ppm

Structure (SMILES)	Growth on poison media (fungistatic / fungicidal / growth)
C=CCc1ccc(OC)c(OC)c1 [Methyl Eugenol]	[empty]

Same assay, conditions: 168 h, 500 ppm

Structure (SMILES)	Growth on poison media (fungistatic / fungicidal / growth)
C=CCc1ccc(OC)c(OC)c1 [Methyl Eugenol]	fungistatic

Same assay, conditions: 168 h, 1000 ppm

Structure (SMILES)	Growth on poison media (fungistatic / fungicidal / growth)
C=CCc1ccc(OC)c(OC)c1 [Methyl Eugenol]	fungistatic

System: Trichophyton mentagrophytes
Assay: as above
Type: cell-based
Settings: 100 ppm (v/v) in modified Sabouraud agar; one week at 30° C.
Description: as §1, §2

Structure (SMILES)	Growth on poison media (fungistatic / fungicidal / growth)
Cc1ccc(C(C)C)cc1O [Carvacrol]	[empty]
O=CC=Cc1ccccc1 [Cinnamaldehyde]	[empty]
CC(C)=CCCC(C)=CC=O [Citral]	[empty]
C=CCc1ccc(O)c(OC)c1 [Eugenol]	[empty]
Cc1ccc(C(C)C)c(O)c1 [Thymol]	fungistatic

Same assay, conditions: 500 ppm (v/v) in modified Sabouraud agar; one week at 30° C.

Structure (SMILES)	Growth on poison media (fungistatic / fungicidal / growth)
Cc1ccc(C(C)C)cc1O [Carvacrol]	fungicidal
O=CC=Cc1ccccc1 [Cinnamaldehyde]	[empty]
CC(C)=CCCC(C)=CC=O [Citral]	[empty]
C=CCc1ccc(O)c(OC)c1 [Eugenol]	fungistatic
Cc1ccc(C(C)C)c(O)c1 [Thymol]	fungicidal

Same assay, conditions: 1000 ppm (v/v) in modified Sabouraud agar; one week at 30° C.

Structure (SMILES)	Growth on poison media (fungistatic / fungicidal / growth)
Cc1ccc(C(C)C)cc1O [Carvacrol]	fungicidal
O=CC=Cc1ccccc1 [Cinnamaldehyde]	fungicidal
CC(C)=CCCC(C)=CC=O [Citral]	fungistatic
C=CCc1ccc(O)c(OC)c1 [Eugenol]	fungistatic
Cc1ccc(C(C)C)c(O)c1 [Thymol]	fungicidal

Same assay, conditions: 168 h, 100 ppm

Structure (SMILES)	Growth on poison media (fungistatic / fungicidal / growth)
C=CCc1ccc(OC)c(OC)c1 [Methyl Eugenol]	[empty]

Same assay, conditions: 168 h, 500 ppm

Structure (SMILES)	Growth on poison media (fungistatic / fungicidal / growth)
C=CCc1ccc(OC)c(OC)c1 [Methyl Eugenol]	fungistatic

Same assay, conditions: 168 h, 1000 ppm

Structure (SMILES)	Growth on poison media (fungistatic / fungicidal / growth)
C=CCc1ccc(OC)c(OC)c1 [Methyl Eugenol]	fungistatic

System: Microsporum gypseum
Assay: as above
Type: cell-based
Settings: 100 ppm (v/v) in modified Sabouraud agar; one week at 30° C.
Description: as §1, §2

Structure (SMILES)	Growth on poison media (fungistatic / fungicidal / growth)
Cc1ccc(C(C)C)cc1O [Carvacrol]	fungistatic
O=CC=Cc1ccccc1 [Cinnamaldehyde]	[empty]
CC(C)=CCCC(C)=CC=O [Citral]	[empty]
C=CCc1ccc(O)c(OC)c1 [Eugenol]	[empty]
Cc1ccc(C(C)C)c(O)c1 [Thymol]	fungistatic

Same assay, conditions: 500 ppm (v/v) in modified Sabouraud agar; one week at 30° C.

Structure (SMILES)	Growth on poison media (fungistatic / fungicidal / growth)
Cc1ccc(C(C)C)cc1O [Carvacrol]	fungicidal
O=CC=Cc1ccccc1 [Cinnamaldehyde]	fungicidal
CC(C)=CCCC(C)=CC=O [Citral]	[empty]
C=CCc1ccc(O)c(OC)c1 [Eugenol]	fungicidal
Cc1ccc(C(C)C)c(O)c1 [Thymol]	fungicidal

Same assay, conditions: 1000 ppm (v/v) in modified Sabouraud agar; one week at 30° C.

Structure (SMILES)	Growth on poison media (fungistatic / fungicidal / growth)
Cc1ccc(C(C)C)cc1O [Carvacrol]	fungicidal
O=CC=Cc1ccccc1 [Cinnamaldehyde]	fungicidal
CC(C)=CCCC(C)=CC=O [Citral]	fungicidal
C=CCc1ccc(O)c(OC)c1 [Eugenol]	fungicidal
Cc1ccc(C(C)C)c(O)c1 [Thymol]	fungicidal

Same assay, conditions: 168 h, 100 ppm

Structure (SMILES)	Growth on poison media (fungistatic / fungicidal / growth)
C=CCc1ccc(OC)c(OC)c1 [Methyl Eugenol]	[empty]

Same assay, conditions: 168 h, 500 ppm

Structure (SMILES)	Growth on poison media (fungistatic / fungicidal / growth)
C=CCc1ccc(OC)c(OC)c1 [Methyl Eugenol]	fungistatic

Same assay, conditions: 168 h, 1000 ppm

Structure (SMILES)	Growth on poison media (fungistatic / fungicidal / growth)
C=CCc1ccc(OC)c(OC)c1 [Methyl Eugenol]	fungistatic

System: four dermatophytes (E. floccosum, M. gypseum, T. mentagrophytes, and T. rubrum)
Assay: Poison media procedure
Type: cell-based
Settings: 100 ppm
Description: as §1, §2

Structure (SMILES)	Inhibition of growth
Cc1ccc(C(C)C)cc1O [Carvacrol]	inhibit the growth of several organisms
Cc1ccc(C(C)C)c(O)c1 [Thymol]	inhibit the growth of several organisms

System: Trichopyton rubrum
Assay: Minimum inhibitory concentration, poison media procedure
Type: cell-based, Trichophyton rubrum
Settings: 100 ppm (v/v) in modified Sabouraud agar; one week at 30° C.
Description: as §1, §2

Structure (SMILES)	Growth on poison media (fungistatic / fungicidal / growth)
Cc1ccc(C(C)C)cc1O [Carvacrol]	fungistatic
O=CC=Cc1ccccc1 [Cinnamaldehyde]	[empty]
CC(C)=CCCC(C)=CC=O [Citral]	[empty]
C=CCc1ccc(O)c(OC)c1 [Eugenol]	[empty]
Cc1ccc(C(C)C)c(O)c1 [Thymol]	fungicidal

Same assay, conditions: 500 ppm (v/v) in modified Sabouraud agar; one week at 30° C.

Structure (SMILES)	Growth on poison media (fungistatic / fungicidal / growth)
Cc1ccc(C(C)C)cc1O [Carvacrol]	fungicidal
O=CC=Cc1ccccc1 [Cinnamaldehyde]	fungicidal
CC(C)=CCCC(C)=CC=O [Citral]	[empty]
C=CCc1ccc(O)c(OC)c1 [Eugenol]	fungistatic
Cc1ccc(C(C)C)c(O)c1 [Thymol]	fungicidal

Same assay, conditions: 1000 ppm (v/v) in modified Sabouraud agar; one week at 30° C.

Structure (SMILES)	Growth on poison media (fungistatic / fungicidal / growth)
Cc1ccc(C(C)C)cc1O [Carvacrol]	fungicidal
O=CC=Cc1ccccc1 [Cinnamaldehyde]	fungicidal
CC(C)=CCCC(C)=CC=O [Citral]	fungicidal
C=CCc1ccc(O)c(OC)c1 [Eugenol]	fungicidal
Cc1ccc(C(C)C)c(O)c1 [Thymol]	fungicidal

Same assay, conditions: 168 h, 100 ppm

Structure (SMILES)	Growth on poison media (fungistatic / fungicidal / growth)
C=CCc1ccc(OC)c(OC)c1 [Methyl Eugenol]	[empty]

Same assay, conditions: 168 h, 500 ppm

Structure (SMILES)	Growth on poison media (fungistatic / fungicidal / growth)
C=CCc1ccc(OC)c(OC)c1 [Methyl Eugenol]	fungistatic

Same assay, conditions: 168 h, 1000 ppm

Structure (SMILES)	Growth on poison media (fungistatic / fungicidal / growth)
C=CCc1ccc(OC)c(OC)c1 [Methyl Eugenol]	fungistatic
